Reference: ChEMBL document CHEMBL1667783 (Bioorg Med Chem Lett, 2011)

Tests used:
Format in all cases: functional, cell-based
HeLa = assay: Cytotoxicity against human HeLa cells after 48 hrs by MTT assay
HepG2 = assay: Cytotoxicity against human HepG2 cells after 48 hrs by MTT assay; settings: HepG2, 48 h
SK-OV-3 = assay: Cytotoxicity against human SKOV3 cells after 48 hrs by MTT assay; settings: SK-OV-3, 48 h
A549 = assay: Cytotoxicity against human A549 cells after 48 hrs by MTT assay; settings: A549, 48 h
A-431 = assay: Cytotoxicity against human A431 cells after 48 hrs by MTT assay; settings: A-431, 48 h
MCF7 = assay: Cytotoxicity against human MCF7 cells after 48 hrs by MTT assay; settings: MCF7, 48 h
HEp-2 = assay: Cytotoxicity against human Hep2 cells after 48 hrs by MTT assay; settings: HEp-2, 48 h
U-251 = assay: Cytotoxicity against human U251 cells after 48 hrs by MTT assay; settings: U-251, 48 h

Row | Structure (SMILES) | IC50 (HeLa) | IC50 (HepG2) | IC50 (SK-OV-3) | IC50 (A549) | IC50 (A-431) | IC50 (MCF7) | IC50 (HEp-2) | IC50 (U-251)
1 | COc1cc(/C=C/C(=O)/C=C(O)/C=C/c2ccc(-n3ccc4ccccc43)c(OC)c2)ccc1-n1ccc2ccccc21 | > 100 µM | > 100 µM | > 100 µM | > 100 µM | > 100 µM | > 100 µM | > 100 µM | 
2 | COc1cc(/C=C/C(=O)/C=C(O)/C=C/c2ccc(-n3ccnc3)c(OC)c2)ccc1-n1ccnc1 | 45.4 µM | 82.5 µM | 66.9 µM | > 100 µM | 16.8 µM | > 100 µM | > 100 µM | 22 µM
3 | COc1cc(/C=C/C(=O)/C=C(O)/C=C/c2ccc(-n3cccn3)c(OC)c2)ccc1-n1cccn1 | > 100 µM | > 100 µM | > 100 µM | > 100 µM | > 100 µM | > 100 µM | > 100 µM | 
4 | COc1cc(/C=C/C(=O)/C=C(O)/C=C/c2ccc(-n3cnc4ccccc43)c(OC)c2)ccc1-n1cnc2ccccc21 | > 100 µM | > 100 µM | > 100 µM | > 100 µM | > 100 µM | > 100 µM | > 100 µM | 
5 | COc1cc(/C=C/C(=O)/C=C(O)/C=C/c2ccc(I)c(OC)c2)ccc1I | > 100 µM | > 100 µM | > 100 µM | > 100 µM | > 100 µM | > 100 µM | > 100 µM | > 100 µM
6 | COc1cc(/C=C/C(=O)/C=C(O)/C=C/c2ccc(Br)c(OC)c2)ccc1Br | > 100 µM | > 100 µM | > 100 µM | > 100 µM | 55.9 µM | > 100 µM | > 100 µM | 84.8 µM
7 | COc1cc(/C=C/C(=O)/C=C(O)/C=C/c2ccc(N)c(OC)c2)ccc1N | > 100 µM | > 100 µM | > 100 µM | > 100 µM | 15.8 µM | > 100 µM | > 100 µM | 24.5 µM
8 | COc1cc(/C=C/C(=O)/C=C(O)/C=C/c2ccc(NC(C)=O)c(OC)c2)ccc1NC(C)=O | 37.1 µM | 71.6 µM | 55.5 µM | > 100 µM | 7.2 µM | > 100 µM | > 100 µM | 7.1 µM
9 | CNc1ccc(/C=C/C(=O)/C=C(O)/C=C/c2ccc(NC)c(OC)c2)cc1OC | > 100 µM | > 100 µM | > 100 µM | > 100 µM | > 100 µM | > 100 µM | > 100 µM | > 100 µM
10 | COc1cc(/C=C/C(=O)/C=C(O)/C=C/c2ccc(C(N)=O)c(OC)c2)ccc1C(N)=O | 23.8 µM | 43.6 µM | 38.3 µM | > 100 µM | 9.4 µM | 49.2 µM | > 100 µM | 7.7 µM
11 | COc1cc(/C=C/C(=O)CC(=O)/C=C/c2ccc(O)c(OC)c2)ccc1O [CURCUMIN] | 27.4 µM | 31.6 µM | 37.7 µM | 42.6 µM | 13.8 µM |  | 56.9 µM | 13.8 µM
